{"source": "patent US9907791B2", "about": "“Ron inhibitors for use in preventing and treating bone loss” (UNIVERSITY OF UTAH RESEARCH FOUNDATION, priority 2014, dated 2018)", "key": {"bone marrow osteoclasts": {"system": "bone marrow osteoclasts", "assay": "Osteoclast resorption assay", "assay_type": "cell-based, mice", "conditions": "WT osteoclasts, inhibitors 10 μM or muRANK-Fc 10 μg/mL daily day 9 to 12", "description": "Bone marrow osteoclasts were generated from 6 to 8 week old WT and RonTK−/− mice. Briefly, bone marrow was isolated from hindlimb bones and plated in α-MEM media containing 10% heat-inactivated fetal bovine serum (FBS, Sigma, St. Louis, Mo.), 100 units/mL penicillin-streptomycin (Hyclone), and 33 ng/mL human macrophage colony-stimulating factor (hM-CSF) (PeproTech, Rocky Hill, N.J.) for 24 hours. Non-adherent cells were collected and frozen for later use. To assess resorption activity, bone marrow precursor cells were thawed and seeded at a density of 1×10^5 cells per well in BioCoat Osteologic slides (BD Biosciences, San Jose, Calif.) in α-MEM media containing 10% FBS and antibiotics. After adhering overnight, media was removed and media containing 33 ng/mL hM-CSF and 9 ng/mL muRANKL (R & D systems, Minneapolis, Minn.) was added. The medium was changed every 3 days depending on acidification, and the assay was terminated as indicated. Recombinant human MSP was prepared and added daily as indicated. Cells were removed with 6% bleach and slides were viewed microscopically using phase-contrast with 20× magnification. Osteolytic resorption area within 5 representative fields was determined using Image J software, experiments were performed in triplicate. […]"}, "[1]": {"assay": "Human plasma CTX levels, Phase I patients", "assay_type": "in vivo", "description": "All samples were de-identified and the experiments were approved by the University of Utah Institutional Review Board. Plasma samples were submitted to ARUP for clinical testing of CTX. For BSAP, the Human Bone Panel I capture plate with the Human Alkaline Phosphatase detection kit was utilized (Meso Scale Discovery, Rockville, Md.; […]-2) to measure BSAP levels in undiluted plasma samples per the manufacturer's protocol. ASLAN002 is currently in Phase I testing as an anti-cancer agent (NCT01721148). Regardless of cancer diagnosis, and even in the absence of bone metastasis, RON inhibition might affect normal bone turnover, especially in postmenopausal women due to their high rate of bone loss. Plasma samples from early cohorts of Phase I patients were examined for evidence of bone turnover at baseline and after treatment with ASLAN002, using a standard clinical test to detect cleaved bone-derived collagen in plasma (beta-cross-linked C-telopeptide, or CTX). […] Shown in FIG. 15A is quantification of the percent change in plasma CTX levels (compared to baseline prior to drug treatment) in blood plasma of patients receiving ASLAN002 in the Phase I clinical trial. Most patients received ASLAN002 for 28 days; the exceptions in duration are noted (*15 days and ^84 days). Dark bars represent males, and light bars represent females. […] In this analysis, all subjects except one were >50 years old; women older than 50 were expected to have the greatest amount of physiologic bone turnover due to menopause. None of the patients analyzed were treated concurrently with anti-osteoporotic agents. […] Shown in FIG. 15B is quantification of the percent change in BSAP levels (compared to baseline) in blood plasma of patients receiving ASLAN002. The patients are the same as those shown in FIG. 15A, except those receiving only 15 days of ASLAN002 were not tested for BSAP. Dark bars represent males, and light bars represent females. Note that these patients were not selected based on a diagnosis of bone metastasis; rather, markers of bone turnover in patients with various cancer diagnoses who participated in the Phase I trial of ASLAN002 were simply assessed."}, "[2]": {"system": "DU4475 breast cancer cells", "assay": "Intratibial DU4475 tumor-induced osteolysis", "assay_type": "in vivo, mice", "conditions": "treatment began 3 days post tumor cell injection", "description": "All procedures involving mice and experimental protocols were approved by the Institutional Animal Care and Use Committee (IACUC) of the University of Utah. The RonTK−/− mice which reside on the FVB background, were crossed with NOD.SCID mice for an immune-compromised mouse model. As a control, wild-type FVB mice were also crossed with NOD.SCID mice. The STK−/− mice, which are on a C57BL/6 background, were compared to wild-type C57BL/6 mice as controls. Mice for all experiments were 6 to 8 weeks of age. For intratibial injections, 1×10^5 (PyMTor DU4475) or 3×10^5 (MDA-MB-231) tumor cells were resuspended in 10 μL matrigel and injected into the right tibia of anesthetized female FVB (PyMT) or NOD.SCID mice carrying various alleles of RON. Osteolysis was assessed by X-ray radiography. Dissected hindlimbs from mice sacrificed at the final time point in each experiment were placed in the Kodak In-vivo Multispectral Imaging System FX and exposed to X-ray radiography at 35 kV for 100 sec. Excess tumor tissue was removed from the bones prior to X-ray. Osteolytic lesions were quantified using Image J software (NCBI). All images were compared to the contralateral leg as an internal control.\nFor in vivo experiments, the OSI-296 inhibitor was dissolved in 40% Trappsol with 0.01 M HCl, and mice were treated at a concentration of 200 mg/kg daily by oral gavage. […]"}}}
{"smiles": "CCOc1ccn(-c2ccc(F)cc2)c(=O)c1C(=O)Nc1ccc(Oc2ccnc(N)c2Cl)c(F)c1", "note": "[ASLAN002]", "values": [{"measurement": "MSP-induced increase in osteoclast resorption (resorption area)", "setting": "bone marrow osteoclasts", "value": "dramatically reduced"}, {"measurement": "women showing ≧25% decreases in CTX", "setting": "[1]; 7/10 women", "value": 70, "unit": "%"}, {"measurement": "patients exhibiting decreased CTX levels", "setting": "[1]; 11/18 Phase I patients, most 28 days of treatment", "value": 61, "unit": "%"}, {"measurement": "men showing ≧25% decreases in CTX", "setting": "[1]; number of men out of all men", "value": "0/8"}, {"measurement": "patients with decreased CTX that had ≧25% reduction", "setting": "[1]; of the patients with decreased CTX, Mayo clinic response guideline", "value": 64, "unit": "%"}, {"measurement": "osteolysis from DU4475 cells", "setting": "[2]", "value": "prevented osteolysis"}]}
